Experimental data as given in patent US20030148966A1, “Method and composition for inducing apoptosis in cells” (priority 2002, published 2003).
Values joined by “and” are separate entries in the source; they are usually repeats but may differ in a detail not shown here. Equal values may be shown once. Read-outs that look alike come from different tables or passages of the source.

Columns and labels:
[1] = in vitro; conditions: human
[2] = tested on: HL-60 cells; assay: Deoxyribonucleotide (dNTP) extraction and DNA-polymerase assay; format: cell-based, human; conditions: 16 hours; for % dATP / % dCTP: percent of control
Experimental: The TCA extract was dried using a Speedvac drying system at room temperature and, if necessary, stored at −20° C. until analysis. The assay for dNTP, which is based on the original DNA-polymerase assay^22, was optimized by the use of 96-well plates^23 and tailor-made oligonucleotides^24,25, and was performed as previously described for dCTP^21. After reconstitution of the samples in Hepes-buffered assay buffer (pH 7.3) at 10^7 cells/ml, samples and standards (0, 1, 2.5 and 5 pmol dNTP) were added to diethylaminoethyl (DEAE) filter plates (Millipore, Ettenleur, The Netherlands). This was followed by the addition of demi water (up to 30 μl if a reaction mix, consisting of 10 μl [8-^3H]dATP (25 μM; 1.6 Ci/mmol; 0.04 μCi/μl) for detection of dCTP, dTTP and dGTP and 10 μl[CH3-^3H]dTTP (25 μM; 1.6 Ci/mmol; 0.04 μCi/μl) for dATP detection, 5 μl appropriate oligonucleotide (6 μM. consisting of a primer attached to one of four possible templates specially designed for the detection of one of the four dNTPs), 5 μl Klenow DNA pol I and […] assay buffer. The filterplates were gently vortexed and incubated at room temperature for 2 hours. The wells were washed, the wet filters punched out and radioactivity counted as described^21. The dNTP levels were determined after 16-hours of treatment. At this time point, cells were still alive and membranes intact, preventing non-specific loss of dNTP's^33. […] Whereas, dCTP (89% of control)- and dATP (81% of control)-levels were in the range of control when cells were treated with 5 μM BR, exposure to 20 μM BR, caused a drop in dCTP and dATP levels to 37% and 33%, respectively.

[3] = tested on: HL-60 cells; assay: ATP bioluminescence assay (intracellular ATP content); format: cell-based, human; conditions: 16 hours, percent of untreated control
Experimental: ATP content was measured with the ATP bioluminescence assay kit HS II from Boehringer Mannheim (Roche Molecular Biochemicals, Mannheim, Germany). Cells were treated with adenosine and BR for 16 hours, and subsequently their viability was measured by trypan blue exclusion. […] An equal amount of cell lysis reagent was then added, and after an incubation period of 5 minutes at room temperature, the samples were transferred to microtiter plates. A Luciferase reagent (100 μl) was added and the signal was detected immediately on a lumi Imager F1 (Roche). Experiments were done in triplicates, and the values of treated samples calculated as percent of untreated controls. […] Cells were harvested and the intercellular ATP content was measured as described in herein. Statistical analysis by t-test confirmed that the differences between ATP-levels after treatment with BR (+/−adenosine) were significant (p<0.05).

[4] = tested on: HL-60 cells; assay: Comet assay (single cell gel electrophoresis), DNA strand breaks; format: cell-based, human; conditions: for DNA tail length: % of cells <= 25 μm: 16 hours, alkaline pH 13.0; for DNA single strand breaks: alkaline pH (13.0)
[5] = tested on: HL-60 cells; conditions: 48 hours
[6] = tested on: HL-60 cells; assay: Western blots: PARP, gelsolin and Caspase 3 cleavage; format: cell-based, human
Experimental: Cells from treated and untreated cultures were sedimented, washed in cold PBS, and lysed in SDS sample buffer (25 mM TRIS pH 6.8, 3% SDS, 10% glycerol, 36 mM DTT, 0.925 mM EDTA). Equal amounts of protein (calculated with the Dot Metric Protein Assay Kit from Novus Molecular, San Diego, Calif., USA) were loaded onto 10% or 15% polyacrylamide gels. Proteins were electrophoresed at 80 V for 2 to 3 hours, and then transblotted onto PVDF membranes (Hybond P, Amersham International, UK) at 80 V for 2 hours^20. Membranes were quenched in PBS with 0.5% skim milk and 0.05% Tween 20 for 1 hour, incubated with primary antibodies (mouse monoclonal anti PARP C-2-10 used 1:2000, mouse monoclonal anti-gelsolin used 1:2000, Sigma; rabbit polyclonal anti caspase 3 antibody used 1:1000, St. Cruz) overnight at 4° C., and with horseradish peroxidase, conjugated secondary antibody for 2 hours at room temperature. The ECL kit (Amersham International, UK) was used for blot development; chemiluminescence was detected on Kodak Xomat UV films.
Controls were treated with saline for 24 hours and western blots were performed as described herein. The 89 kD cleavage product of PARP and the 41 kD cleavage product of gelsolin could be detected upon treatment with 5 μM and 10 μM BR, and diminished in response to higher doses of BR.
5 μM and 10 μM BR, which mainly induce apoptosis, triggering processing of caspase 3.20 μM and 40 μM BR mainly provokes necrosis. This is also reflected by the reduced levels of activated caspase 3. In the presence of adenosine, 20 μM and 40 μM BR activate caspase 3 and also induce apoptosis. Equal sample loading was controlled by Ponceau S staining.

[7] = tested on: leukemia cells; assay: Oncolytic activity against leukemia cells; format: cell-based
[8] = tested on: HL-60 cells; assay: Transmission electron microscopy of cell morphology; format: cell-based, human; conditions: 48 hours
Experimental: For transmission electron microscopy (TEM) cells treated with PBS (controls), […] glutaraldehyde (in 0.1 M sodium cacodylate buffer with 4% sucrose, pH 7.2) for 45 minutes, washed in sodium cacodylate buffer and post-fixed in 2% osmium tetroxide (in 0.1 M sodium cacodylate buffer with 4% sucrose) for 45 minutes. Following several washes, the cells were concentrated by centrifugation at 150 g for 5 minutes, dehydrated in a graded series of ethanol, washed in propylene oxide, embedded in Epon (Serva, Germany), and sectioned at about 70 nm. The ultra-thin sections were stained with uranyl acetate/lead citrate for observation with a Zeiss EM 902 transmission electron microscope.
The bars at the lower right corners indicated 1.1 μm.

In the case of `Nc1ncnc2c1ncn2[C@@H]1O[C@H](CO)[C@@H](O)[C@H]1O` [Ade, adenosine, reference compound], the viability at 48 h, 800 µM [1] is reported as 93%, the “% dATP” value ([2]; adenosine alone) is reported as 70% and the “% dCTP” value ([2]; adenosine alone) is reported as 64%. For the same compound, the “% ATP” value ([3]; adenosine alone (800 μM)) was 85%, the “DNA tail length: % of cells <= 25 μm” value ([4]; adenosine alone) was 98% <= 25 μm and the “% apopt” value ([5]; adenosine alone) was 7%. The “% necro” value ([5]; adenosine alone) was 0%, the “% total death” value ([5]; adenosine alone) was 7% and the “% viable + apopt” value ([5]; adenosine alone) was 100%.

For `CC1=C(/C=C/C(C)=C/C=C/C(C)=C/C(=O)O)C(C)(C)CCC1` [ATRA, all-trans retinoic acid, reference compound], the “% apoptotic cells” value ([5]; 120 μM ATRA) was 30% and the “% necrotic cells” value ([5]; 120 μM ATRA) was 45%.

For `NC(=O)c1cccc([C@@H]2O[C@H](CO)[C@@H](O)[C@H]2O)c1` [BR, benzamide riboside], the “% dATP” value ([2]; 5 μM BR +/- adenosine) was 81%, the “% dCTP” value ([2]; 5 μM BR +/- adenosine) was 89% and the “dGTP levels, % of control” value ([2]; 5 μM or 20 μM BR) was “approximately 53%”. The “% dATP” value ([2]; 20 μM BR +/- adenosine) was 33%, the “% dCTP” value ([2]; 20 μM BR +/- adenosine) was 37% and the “cell death and gelsolin cleavage” value ([6]; 0.5 μM, 1 μM or 2 μM BR, 24 hours) was “neither induced cell death, nor gelosin cleavage”. The “Caspase 3 activation (p20 kD fragment)” value ([6]; 5 μM and 10 μM BR, 24 hours) was “Caspase 3 activation culminated”, the “cell death mode; gelsolin (41 kD) and PARP (89 kD) fragmentation” value ([6]; 5 μM or 10 μM BR, 24 hours) was “caused apoptosis” and the “cell death mode; PARP and gelsolin fragmentation” value ([6]; 20 μM BR, 24 hours) was “increase of the fraction of necrotic cells”. For the same compound, the “Caspase 3 activation (p20 kD fragment)” value ([6]; 20 μM or 40 μM BR +/- 800 μM adenosine) was “activation was inhibited”, the “% ATP” value ([3]; 5 μM BR +/- adenosine (800 μM)) was 50% and the “% ATP” value ([3]; 20 μM BR +/- adenosine (800 μM)) was 3% and 2.7%. For the same compound, the “DNA single strand breaks” value ([4]; 5 μM BR) was “but not with 5 μM BR treatment”, the “DNA tail length: % of cells <= 25 μm” value ([4]; 20 μM BR +/- adenosine) was 50% <= 25 μm and the “DNA double strand breaks” value ([4]; 20 μM BR, 8 hours, neutral pH (7.5)) was “induced DNA double strand breaks”. The “DNA single strand breaks” value ([4]; 20 μM BR) was “DNA single strand breaks occurred”, the “concentration range of strong oncolytic activity” value [7] was 5 to 10 µM and the “cell morphology by electron microscopy” value ([8]; 5 μM BR) was “electron dense chromatin marginated at the nuclear envelope as a hallmark of apoptosis”. For the same compound, the “cell morphology by electron microscopy” value ([8]; 20 μM BR) was “typical necrotic morphology”, the “% apopt” value ([5]; 5 μM BR +/- adenosine) was 69% and the “% necro” value ([5]; 5 μM BR +/- adenosine) was 2%. For the same compound, the “% total death” value ([5]; 5 μM BR +/- adenosine) was 71%, the “% viable + apopt” value ([5]; 5 μM BR +/- adenosine) was 98% and the “% apopt” value ([5]; 20 μM BR +/- adenosine) was 30%. The “% necro” value ([5]; 20 μM BR +/- adenosine) was 51%, the “% total death” value ([5]; 20 μM BR +/- adenosine) was 81% and the “% viable + apopt” value ([5]; 20 μM BR +/- adenosine) was 49%.
